Source: US9079866B2, “Flap modulators” (JANSSEN PHARMACEUTICA NV, priority 2013, dated 2015)
pIC50, pKi: −log10 of the molar value. Structures can show the parent of a compound that is named as a salt. Where two headings read alike, the source gives them in different places.

Key:
human FLAP = human FLAP (Homo sapiens (Human), UniProt P20292); test: FLAP binding assay (HTRF format); conditions: HTRF format
In short: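 Read-out is the HTRF ratio. Each reported figure averages two assay plates on which samples were tested in duplicate.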

[1] = test system: leukotriene pathway in human whole blood (LTB4 levels); test: Human whole blood assay (A23187-stimulated LTB4); assay type: cell-based; conditions: Homo sapiens, read-out: LTB4 IC50 1:1
In short: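 Compounds are pre-incubated 15 min at 37° Celsius in RPMI-diluted (1:1) heparinised whole blood before a 30 min A23187 stimulus (7 μg/mL). Plasma LTB4 is read by immunoassay kit, with IC50 calculated from a 4-parameter equation.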

[2] = human whole blood diluted 1:1, A23187-stimulated
[3] = human FLAP wild type, average of two plates, duplicates
[4] = human whole blood diluted 1:1 in RPMI, A23187-stimulated LTB4

human FLAP, sequence (P20292 whole entry): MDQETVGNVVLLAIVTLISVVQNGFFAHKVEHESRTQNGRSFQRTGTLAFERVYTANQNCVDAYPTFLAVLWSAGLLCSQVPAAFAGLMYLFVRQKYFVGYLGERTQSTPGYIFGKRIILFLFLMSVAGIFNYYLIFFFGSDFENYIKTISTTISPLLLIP

Work on `Nc1ccc(Oc2ccccc2-c2ccc(-c3cnc(N)cn3)c(F)c2)nc1` [Example 620, 5-{2′-[(5-Aminopyridin-2-yl)oxy]-3-fluorobiphenyl-4-yl}pyrazin-2-amine] yielded a pKi (human FLAP; wild type FLAP) of 8.72 and a pIC50 [1, 2] of 7.88.
`Nc1cnc(-c2ccc(-c3ccccc3S(=O)(=O)N3C[C@H](O)[C@@H](O)C3)cc2F)cn1` (relative stereo) [Example 106, (trans)-1-{[4′-(5-Aminopyrazin-2-yl)-3′-fluorobiphenyl-2-yl]sulfonyl}pyrrolidine-3,4-diol] was tested, and the pKi (human FLAP; [3]) was 7.72 and the pIC50 [1, 4] was < 6.00.
With `CC1(NS(=O)(=O)c2ccccc2-c2ccc(-c3ccc(N)nc3)c(F)c2)CCC1` [Example 353, 4′-(6-Aminopyridin-3-yl)-3′-fluoro-N-(1-methylcyclobutyl)-[, 1′-biphenyl]-2-sulfonamide] the pKi (human FLAP; [3]) was 9.00 and the pIC50 [1, 4] was 7.70.
`Nc1cnc(-c2ccc(-c3ccccc3S(=O)(=O)N[C@H](CO)Cc3ccccc3)cc2F)cn1` [Example 116, (S)-4′-(5-Aminopyrazin-2-yl)-3′-fluoro-N-(1-hydroxy-3-phenylpropan-2-yl)-[1,1′-biphenyl]-2-sulfonamide] was tested, and the pKi (human FLAP; [3]) was 9.00 and the pIC50 [1, 4] was 7.92.
`Nc1cnc(-c2ccc(-c3cccnc3OCC3CC3)cc2F)cn1` [Example 488, 5-{4-[2-(Cyclopropylmethoxy)pyridin-3-yl]-2-fluorophenyl}pyrazin-2-amine] showed a pKi (human FLAP; wild type FLAP) of 7.01 and a pIC50 [1, 2] of 5.78.
`Nc1cnc(-c2ccc(-c3ccccc3CSc3nccc(N)n3)cc2F)cn1` [Example 753, 2-({[4′-(5-Aminopyrazin-2-yl)-3′-fluorobiphenyl-2-yl]methyl}sulfanyl)pyrimidin-4-amine] showed a pKi (human FLAP; wild type FLAP) of 8.36 and a pIC50 [1, 2] of 7.67.
For `CC(C)(C)NS(=O)(=O)c1ccccc1-c1ccc(-c2cn3cccc(F)c3n2)c(F)c1` [Example 580, N-tert-Butyl-3′-fluoro-4′-(8-fluoroimidazo[1,2-a]pyridin-2-yl)biphenyl-2-sulfonamide], the pKi (human FLAP; wild type FLAP) was 7.26 and the pIC50 [1, 2] was 5.30.
For `Nc1ncc(-c2ccc(-c3ccccc3-c3cnccn3)cc2F)cn1` [Example 839, 5-(3-Fluoro-2′-pyrazin-2-ylbiphenyl-4-yl)pyrimidin-2-amine], the pKi (human FLAP; wild type FLAP) was 6.08 and the pIC50 [1, 2] was 5.55.
For `CN(C)S(=O)(=O)c1ccccc1-c1ccc(-c2cnc(N)cn2)c(F)c1` [Example 42, 4′-(5-Aminopyrazin-2-yl)-3′-fluoro-N,N-dimethylbiphenyl-2-sulfonamide], the pKi (human FLAP; [3]) was 7.96 and the pIC50 [1, 4] was 6.83.
`Nc1cnc(-c2ccc(-c3ccccc3S(=O)(=O)NC3CCNCC3)cc2F)cn1` [Example 123, 4′-(5-Aminopyrazin-2-yl)-3′-fluoro-N-piperidin-4-ylbiphenyl-2-sulfonamide] showed a pKi (human FLAP; [3]) of 7.08 and a pIC50 [1, 4] of 5.95.
`Nc1cnc(Sc2ccccc2-c2ccc(-c3cnc(N)cn3)c(F)c2)nc1` [Example 219, 2-{[4′-(5-Aminopyrazin-2-yl)-3′-fluorobiphenyl-2-yl]sulfanyl}pyrimidin-5-amine hydrochloride] showed a pKi (human FLAP; [3]) of 8.30 and a pIC50 [1, 4] of 7.51.
In the case of `CC(C)(C)NS(=O)(=O)c1ccccc1-c1ccc(-c2cnc(N)cn2)cc1F` [Example 574, 4′-(5-Aminopyrazin-2-yl)-N-tert-butyl-2′-fluorobiphenyl-2-sulfonamide], the pKi (human FLAP; wild type FLAP) was 7.82 and the pIC50 [1, 2] was 6.31.
With `Nc1cnc(-c2ccc(-c3ccccc3S(=O)(=O)N3CCCC(N)C3)cc2F)cn1` (racemic) [Example 74, racemic 5-{2′-[(3-Aminopiperidin-1-yl)sulfonyl]-3-fluorobiphenyl-4-yl}pyrazin-2-amine] the pKi (human FLAP; [3]) was 8.22 and the pIC50 [1, 4] was 7.21.
`Nc1cnc(-c2ccc(-c3ccccc3S(=O)(=O)c3ccccc3)cc2F)cn1` [Example 477, 5-[3-Fluoro-2′-(phenylsulfonyl)biphenyl-4-yl]pyrazin-2-amine] was tested, and the pKi (human FLAP; wild type FLAP) was 7.80 and the pIC50 [1, 2] was 6.13.
Work on `O=S(=O)(NCCO)c1ccccc1-c1ccc(-c2cnc3[nH]ccc3c2)c(F)c1` [Example 366, 3′-Fluoro-N-(2-hydroxyethyl)-4′-(1H-pyrrolo[2,3-b]pyridin-5-yl)biphenyl-2-sulfonamide] yielded a pKi (human FLAP; [3]) of 9.00 and a pIC50 [1, 4] of 7.40.
Compound `CC(C)S(=O)(=O)Cc1ccccc1-c1ccc(-c2cnc(N)cn2)c(F)c1` [Example 751, 5-(3-Fluoro-2′-{[(1-methylethyl)sulfonyl]methyl}biphenyl-4-yl)pyrazin-2-amine] has a pKi (human FLAP; wild type FLAP) of 7.09 and a pIC50 [1, 2] of 5.98.
Compound `CSCc1ccccc1-c1ccc(-c2cnc(N)cn2)c(F)c1` [Example 235, 5-{3-Fluoro-2′-[(methylsulfanyl)methyl]biphenyl-4-yl}pyrazin-2-amine hydrochloride] has a pKi (human FLAP; [3]) of 7.44 and a pIC50 [1, 4] of 6.55.
`CC(C)(C)NS(=O)(=O)c1ccccc1-c1ccc(-c2cnc(N)c(C#N)n2)c(F)c1` [Example 434, 4′-(5-Amino-6-cyanopyrazin-2-yl)-N-tert-butyl-3′-fluorobiphenyl-2-sulfonamide] showed a pKi (human FLAP; wild type FLAP) of 9.00 and a pIC50 [1, 2] of 7.44.
Work on `CN(c1ccccc1-c1ccc(-c2cnc3[nH]ccc3n2)c(F)c1)S(C)(=O)=O` [Example 492, N-[3′-Fluoro-4′-(5H-pyrrolo[2,3-b]pyrazin-2-yl)biphenyl-2-yl]-N-methylmethanesulfonamide] yielded a pKi (human FLAP; wild type FLAP) of 7.82 and a pIC50 [1, 2] of 6.81.
Compound `Cn1c(S(=O)(=O)c2ccccc2-c2ccc(-c3cnc(N)nc3)c(F)c2)nc2ccccc21` [Example 320, 5-{3-Fluoro-2′-[(1-methyl-1H-benzimidazol-2-yl)sulfonyl]biphenyl-4-yl}pyrimidin-2-amine] has a pKi (human FLAP; [3]) of 6.89 and a pIC50 [1, 4] of 5.96.
`CS(=O)(=O)c1ccc(CSc2ccccc2-c2ccc(-c3cnc(N)cn3)c(F)c2)cc1` [Example 205, 5-(3-Fluoro-2′-{[4-(methylsulfonyl)benzyl]sulfanyl}biphenyl-4-yl)pyrazin-2-amine] showed a pKi (human FLAP; [3]) of 8.10 and a pIC50 [1, 4] of 7.18.
In the case of `CC(CO)NS(=O)(=O)c1ccccc1-c1ccc(-c2cnc3[nH]ccc3n2)c(F)c1` (stereo in doubt) [Example 378, 3′-Fluoro-N-[(1R)-2-hydroxy-1-methylethyl]-4′-(5H-pyrrolo[2,3-b]pyrazin-2-yl)biphenyl-2-sulfonamide], the pKi (human FLAP; [3]) was 9.00 and the pIC50 [1, 4] was 7.80.
`Nc1ncc(-c2ccc(-c3ccccc3-c3cnc(N)nc3)cc2F)cn1` [Example 844, 5,5′-(3′-Fluorobiphenyl-2,4′-diyl)dipyrimidin-2-amine] was tested, and the pKi (human FLAP; wild type FLAP) was 6.29 and the pIC50 [1, 2] was 6.04.
`CC(C)(C)NS(=O)(=O)c1ccccc1-c1ccc(-c2cnc3[nH]ccc3c2)c(F)c1` [Example 367, N-tert-Butyl-3′-fluoro-4′-(1H-pyrrolo[2,3-b]pyridin-5-yl)biphenyl-2-sulfonamide] showed a pKi (human FLAP; [3]) of 9.00 and a pIC50 [1, 4] of 8.22.
Compound `Cn1cc(-c2ccccc2-c2ccc(-c3cnc(N)cn3)c(F)c2)cn1` [Example 847, 5-[3-Fluoro-2′-(1-methyl-1H-pyrazol-4-yl)biphenyl-4-yl]pyrazin-2-amine] has a pKi (human FLAP; wild type FLAP) of 8.09 and a pIC50 [1, 2] of 7.00.
With `NC(=O)C1(S(=O)(=O)c2ccccc2-c2ccc(-c3cnc(N)nc3)c(F)c2)CCCC1` [Example 739, 1-{[4′-(2-Aminopyrimidin-5-yl)-3′-fluorobiphenyl-2-yl]sulfonyl}cyclopentanecarboxamide] the pKi (human FLAP; wild type FLAP) was 6.43 and the pIC50 [1, 2] was 5.95.
In the case of `C[C@@H](O)CNS(=O)(=O)c1ccccc1-c1ccc(-c2ncc(N)nc2C#N)c(F)c1` [Example 708, 4′-(5-Amino-3-cyanopyrazin-2-yl)-3′-fluoro-N-[(2R)-2-hydroxypropyl]biphenyl-2-sulfonamide], the pKi (human FLAP; wild type FLAP) was 7.63 and the pIC50 [1, 2] was 6.85.
Work on `Nc1cnc(-c2ccc(-c3ccc(C(F)(F)F)cc3Oc3ccnc(N)n3)cc2F)cn1` [Example 555, 4-{[4′-(5-Aminopyrazin-2-yl)-3′-fluoro-4-(trifluoromethyl)biphenyl-2-yl]oxy}pyrimidin-2-amine] yielded a pKi (human FLAP; wild type FLAP) of 8.70 and a pIC50 [1, 2] of 7.62.
With `CC(C)[C@@H](CO)NS(=O)(=O)c1ccccc1-c1ccc(-c2cnc(N)nc2)c(F)c1` [Example 271, 4′-(2-Aminopyrimidin-5-yl)-3′-fluoro-N-[(1S)-1-(hydroxymethyl)-2-methylpropyl]biphenyl-2-sulfonamide trifluoroacetic acid salt] the pKi (human FLAP; [3]) was 7.29 and the pIC50 [1, 4] was 6.22.
`Nc1cnc(-c2ccc(-c3ccccc3S(=O)(=O)N3CC[C@@H](O)C3)cc2F)cn1` [Example 185, (3R)-1-{[4′-(5-Aminopyrazin-2-yl)-3′-fluorobiphenyl-2-yl]sulfonyl}pyrrolidin-3-ol trifluoroacetic acid salt] was tested, and the pKi (human FLAP; [3]) was 8.00 and the pIC50 [1, 4] was 7.29.
`C[C@H](CO)NC(=O)c1ccccc1-c1ccc(-c2cnc(N)cn2)c(F)c1` [Example 512, 4′-(5-Aminopyrazin-2-yl)-3′-fluoro-N-[(1R)-2-hydroxy-1-methylethyl]biphenyl-2-carboxamide] showed a pKi (human FLAP; wild type FLAP) of 6.35 and a pIC50 [1, 2] of 6.33.
`Nc1cnc(-c2ccc(-c3ccccc3S(=O)(=O)NC3CCCCC3)cc2F)cn1` [Example 6, 4′-(5-Aminopyrazin-2-yl)-N-cyclohexyl-3′-fluorobiphenyl-2-sulfonamide] gave a pKi (human FLAP; [3]) of 9.00 and a pIC50 [1, 4] of 7.48.
For `Cc1cccc(-c2ccc(-c3cnc(N)nc3)c(F)c2)c1S(=O)(=O)NC(C)(C)C` [Example 287, 4′-(2-Aminopyrimidin-5-yl)-N-tert-butyl-3′-fluoro-3-methylbiphenyl-2-sulfonamide trifluoroacetic acid salt], the pKi (human FLAP; [3]) was 8.05 and the pIC50 [1, 4] was 7.13.
`Nc1ccnc(Oc2ccccc2-c2ccc(-c3cnc(N)nc3)c(F)c2)n1` [Example 529, 5-{2′-[(4-Aminopyrimidin-2-yl)oxy]-3-fluorobiphenyl-4-yl}pyrimidin-2-amine] showed a pKi (human FLAP; wild type FLAP) of 7.44 and a pIC50 [1, 2] of 7.05.
In the case of `Nc1cc(Oc2ccccc2-c2ccc(-c3cnc(N)nc3)c(F)c2)ncn1` [Example 536, 5-{2′-[(6-Aminopyrimidin-4-yl)oxy]-3-fluorobiphenyl-4-yl}pyrimidin-2-amine], the pKi (human FLAP; wild type FLAP) was 7.68 and the pIC50 [1, 2] was 7.17.
